For assay [1], the system named is Kuramochi cell line. The assay can be described thus: Cell Viability Assay (Cell Titer-Glo, 7 days). Particulars: 168 h, Kuramochi cells, 7 days incubation, read-out: PARG Cell viability (IC50). Type of assay: cell-based. A digest of the protocol:
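IC50 from a four-parameter fit of CellTiter-Glo luminescence, scaled between DMSO-treated (high) and medium-only (low) wells. Kuramochi cells (400/well, RPMI/10% FBS) exposed 7 days at 37 °C to 9 concentrations, 3-fold steps, in duplicate.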
(ATP-based viability assays read luminescence as a measure of living cells.)

Assay [2] deals with hPARG (C-terminal His6-tag) (Homo sapiens (Human), UniProt Q86W56). The assay is described as follows: PARG Enzymatic Activity Assay (HTRF). Type of assay: biochemical. Particulars: hPARG 65 pM final, biotinylated-NAD ribosylated PARP1 8 nM final. The procedure, abridged:
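Readout is time-resolved fluorescence at 620 and 665 nm after 60 min RT detection with streptavidin-Eu cryptate and anti-6HIS-XL665; IC50 by 4-parameter fit, 1% DMSO and no-enzyme controls. Reaction: 8 nM final ribosylated PARP1 substrate for 10 min RT, following 60 min RT enzyme (65 pM)–compound preincubation in Tris pH 7.4 buffer with EDTA, DTT, KCl.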
For orientation: Time-resolved FRET reads energy transfer from a long-lived donor to a nearby acceptor.

hPARG (C-terminal His6-tag), sequence (Q86W56 whole entry): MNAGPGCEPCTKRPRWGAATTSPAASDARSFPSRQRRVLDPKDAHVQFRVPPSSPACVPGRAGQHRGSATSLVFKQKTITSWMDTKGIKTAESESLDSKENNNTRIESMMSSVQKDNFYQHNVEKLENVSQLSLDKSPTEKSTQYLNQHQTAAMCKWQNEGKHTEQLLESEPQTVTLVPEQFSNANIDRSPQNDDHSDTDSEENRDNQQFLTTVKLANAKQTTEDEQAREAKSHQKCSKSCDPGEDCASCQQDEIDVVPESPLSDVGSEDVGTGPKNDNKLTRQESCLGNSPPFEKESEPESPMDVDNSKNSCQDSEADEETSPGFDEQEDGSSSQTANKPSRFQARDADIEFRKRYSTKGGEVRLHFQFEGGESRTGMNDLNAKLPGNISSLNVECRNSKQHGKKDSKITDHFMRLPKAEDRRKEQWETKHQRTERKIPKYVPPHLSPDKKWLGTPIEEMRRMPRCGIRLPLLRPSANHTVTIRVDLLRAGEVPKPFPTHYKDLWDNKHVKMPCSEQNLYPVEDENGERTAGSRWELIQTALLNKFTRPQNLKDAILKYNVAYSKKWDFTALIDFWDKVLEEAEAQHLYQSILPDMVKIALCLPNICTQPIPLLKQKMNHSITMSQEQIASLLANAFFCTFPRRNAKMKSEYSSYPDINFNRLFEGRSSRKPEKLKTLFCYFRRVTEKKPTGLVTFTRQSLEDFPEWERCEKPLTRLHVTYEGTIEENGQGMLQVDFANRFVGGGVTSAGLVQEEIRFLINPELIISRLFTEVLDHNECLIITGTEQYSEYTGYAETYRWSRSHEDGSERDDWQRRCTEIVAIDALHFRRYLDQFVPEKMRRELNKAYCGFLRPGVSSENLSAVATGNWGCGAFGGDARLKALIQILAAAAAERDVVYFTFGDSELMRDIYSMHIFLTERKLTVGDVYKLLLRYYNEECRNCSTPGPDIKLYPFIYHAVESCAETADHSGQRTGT

By IC50 is commonly meant the concentration that gives 50% inhibition. As to `CN(C)C(=O)N1CCC(c2ncnc3c2c2ccc(S(=O)(=O)NC4(C#N)CC4)cc2n3-c2nnc(C(F)F)s2)CC1` [Example 88, 4-(7-(N-(1-Cyanocyclopropyl)sulfamoyl)-9-(5-(difluoromethyl)-1,3,4-thiadiazol-2-yl)-9H-pyrimido[4,5-b]indol-4-yl)-N,N-dimethylpiperidine-1-carboxamide], the IC50 in assay [1] and in assay [2] was less than 100 nM throughout.

With `CN(C)C(=O)N1CCC(c2ncnc3c2c2cc(F)c(S(=O)(=O)NC4(C#N)CC4)cc2n3-c2nnc(C(F)F)s2)CC1` [Example 89, 4-(7-(N-(1-Cyanocyclopropyl)sulfamoyl)-9-(5-(difluoromethyl)-1,3,4-thiadiazol-2-yl)-6-fluoro-9H-pyrimido[4,5-b]indol-4-yl)-N,N-dimethylpiperidine-1-carboxamide], the half-inhibitory concentration (IC50) in assay [1] and in assay [2] was less than 100 nM throughout.

Take `CC(C)C(=O)N1CCC(c2ncnc3c2c2cc(F)c(S(=O)(=O)NC4(C#N)CC4)cc2n3-c2nnc(C(F)F)s2)CC1` [Example 90, N-(1-Cyanocyclopropyl)-9-(5-(difluoromethyl)-1,3,4-thiadiazol-2-yl)-6-fluoro-4-(1-isobutyrylpiperidin-4-yl)-9H-pyrimido[4,5-b]indole-7-sulfonamide]: the IC50 in assay [1] and in assay [2] was less than 100 nM in each case.

For `CC(C)C(=O)N1CC=C(c2ncnc3c2c2cc(F)c(S(=O)(=O)NC4(C#N)CC4)cc2n3-c2nnc(C(F)F)s2)CC1` [Example 91, N-(1-Cyanocyclopropyl)-9-(5-(difluoromethyl)-1,3,4-thiadiazol-2-yl)-6-fluoro-4-(1-isobutyryl-1,2,3,6-tetrahydropyridin-4-yl)-9H-pyrimido[4,5-b]indole-7-sulfonamide], the IC50 in assay [1] and in assay [2] was less than 100 nM each time.

For the compound `CC(C)C(=O)N1C=CC(c2ncnc3c2c2cc(F)c(S(=O)(=O)NC4(C#N)CC4)cc2n3-c2nnc(C(F)F)s2)CC1` (stereo not drawn) [Example 92, N-(1-Cyanocyclopropyl)-9-(5-(difluoromethyl)-1,3,4-thiadiazol-2-yl)-6-fluoro-4-(1-isobutyryl-1,2,3,4-tetrahydropyridin-4-yl)-9H-pyrimido[4,5-b]indole-7-sulfonamide], the IC50 in assay [1] and in assay [2] was less than 100 nM each time.

As for `CC1(NS(=O)(=O)c2ccc3c4c(C5CCNCC5)ncnc4n(-c4nnc(C(F)F)s4)c3c2)CC1` [Example 93, 9-(5-(Difluoromethyl)-1,3,4-thiadiazol-2-yl)-N-(1-methylcyclopropyl)-4-(piperidin-4-yl)-9H-pyrimido[4,5-b]indole-7-sulfonamide], the half-maximal inhibitory concentration (IC50) in assay [1] and in assay [2] was less than 100 nM each time.

For the compound `CC1(NS(=O)(=O)c2ccc3c4c(C5CCN(C(=O)C(C)(C)O)CC5)ncnc4n(-c4nnc(C(F)F)s4)c3c2)CC1` [Example 94, 9-(5-(Difluoromethyl)-1,3,4-thiadiazol-2-yl)-4-(1-(2-hydroxy-2-methylpropanoyl)piperidin-4-yl)-N-(1-methylcyclopropyl)-9H-pyrimido[4,5-b]indole-7-sulfonamide], the IC50 in assay [1] and in assay [2] was less than 100 nM in each case.

On to `CO[C@H](C)C(=O)N1CCC(c2ncnc3c2c2ccc(S(=O)(=O)NC4(C)CC4)cc2n3-c2nnc(C(F)F)s2)CC1` [Example 95, (R)-9-(5-(Difluoromethyl)-1,3,4-thiadiazol-2-yl)-4-(1-(2-methoxypropanoyl)piperidin-4-yl)-N-(1-methylcyclopropyl)-9H-pyrimido[4,5-b]indole-7-sulfonamide], for which the IC50 in assay [1] and in assay [2] was less than 100 nM in each case.

Turning to `CO[C@@H](C)C(=O)N1CCC(c2ncnc3c2c2ccc(S(=O)(=O)NC4(C)CC4)cc2n3-c2nnc(C(F)F)s2)CC1` [Example 96, (S)-9-(5-(Difluoromethyl)-1,3,4-thiadiazol-2-yl)-4-(1-(2-methoxypropanoyl)piperidin-4-yl)-N-(1-methylcyclopropyl)-9H-pyrimido[4,5-b]indole-7-sulfonamide], the IC50 in assay [1] and in assay [2] was less than 100 nM throughout.

Take `CN(C)C(=O)c1ccc(-c2ncnc3c2c2ccc(S(=O)(=O)NC4(C#N)CC4)cc2n3-c2nnc(C(F)F)s2)cn1` [Example 97, 5-(7-(N-(1-cyanocyclopropyl)sulfamoyl)-9-(5-(difluoromethyl)-1,3,4-thiadiazol-2-yl)-9H-pyrimido[4,5-b]indol-4-yl)-N,N-dimethylpicolinamide]: the concentration for half-maximal inhibition (IC50) in assay [1] and in assay [2] was less than 100 nM in each case.

As for `C[C@H]1CN(c2ncnc3c2c2ccc(S(=O)(=O)NC4(C#N)CC4)cc2n3-c2nnc(C(F)F)s2)CCN1C` [Example 98, (S)—N-(1-Cyanocyclopropyl)-9-(5-(difluoromethyl)-1,3,4-thiadiazol-2-yl)-4-(3,4-dimethylpiperazin-1-yl)-9H-pyrimido[4,5-b]indole-7-sulfonamide], the IC50 in assay [1] and in assay [2] was less than 100 nM throughout.

`C[C@H]1CN(c2ncnc3c2c2ccc(S(=O)(=O)NC4(C)CC4)cc2n3-c2nnc(C(F)F)s2)CCO1` [Example 99, (S)-9-(5-(Difluoromethyl)-1,3,4-thiadiazol-2-yl)-N-(1-methylcyclopropyl)-4-(2-methylmorpholino)-9H-pyrimido[4,5-b]indole-7-sulfonamide]: the IC50 in assay [1] and in assay [2] was less than 100 nM each time.

On to `C[C@@H]1CN(C(=O)N(C)C)[C@@H](C)CN1c1ncnc2c1c1ccc(S(=O)(=O)NC3(C)CC3)cc1n2-c1nnc(C(F)F)s1` [Example 100, (2S,5R)-4-(9-(5-(difluoromethyl)-1,3,4-thiadiazol-2-yl)-7-(N-(1-methylcyclopropyl)sulfamoyl)-9H-pyrimido[4,5-b]indol-4-yl)-N,N,2,5-tetramethylpiperazine-1-carboxamide], for which the IC50 in assay [1] and in assay [2] was less than 100 nM in each case.

In the case of `C[C@H]1CN(c2ncnc3c2c2ccc(S(=O)(=O)NC4(C)CC4)cc2n3-c2nnc(C(F)F)s2)CCN1C(=O)N(C)C` [Example 101, (S)-4-(9-(5-(Difluoromethyl)-1,3,4-thiadiazol-2-yl)-7-(N-(1-methylcyclopropyl)sulfamoyl)-9H-pyrimido[4,5-b]indol-4-yl)-N,N,2-trimethylpiperazine-1-carboxamide], the IC50 in assay [1] and in assay [2] was less than 100 nM each time.

Regarding `C[C@H]1CN(c2ncnc3c2c2cc(F)c(S(=O)(=O)NC4(C)CC4)cc2n3-c2nnc(C(F)F)s2)CCN1C(=O)N(C)C` [Example 102, (S)-4-(9-(5-(Difluoromethyl)-1,3,4-thiadiazol-2-yl)-6-fluoro-7-(N-(1-methylcyclopropyl)sulfamoyl)-9H-pyrimido[4,5-b]indol-4-yl)-N,N,2-trimethylpiperazine-1-carboxamide], the IC50 in assay [1] and in assay [2] was less than 100 nM each time.

Take `CC(C)C(=O)N1CC=C(c2ncnc3c2c2cc(F)c(S(=O)(=O)NC4(C)CC4)cc2n3-c2nnc(C(F)F)s2)CC1` [Example 103, 9-(5-(Difluoromethyl)-1,3,4-thiadiazol-2-yl)-6-fluoro-4-(1-isobutyryl-1,2,3,6-tetrahydropyridin-4-yl)-N-(1-methylcyclopropyl)-9H-pyrimido[4,5-b]indole-7-sulfonamide]: the IC50 in assay [1] and in assay [2] was less than 100 nM each time.

For `CN1CCC[C@@H]1C(=O)N1CCC(c2ncnc3c2c2ccc(S(=O)(=O)NC4(C#N)CC4)cc2n3-c2nnc(C(F)F)s2)CC1` [Example 104, N-(1-Cyanocyclopropyl)-9-(5-(difluoromethyl)-1,3,4-thiadiazol-2-yl)-4-(1-(methyl-D-prolyl)piperidin-4-yl)-9H-pyrimido[4,5-b]indole-7-sulfonamide], the half-inhibitory concentration (IC50) is 100 to 1000 nM in assay [1] and less than 100 nM in assay [2].

For `CC(=O)N1CCC(c2ncnc3c2c2ccc(S(=O)(=O)NC4(C#N)CC4)cc2n3-c2nnc(C(F)F)s2)CC1` [Example 105, 4-(1-acetylpiperidin-4-yl)-N-(1-cyanocyclopropyl)-9-(5-(difluoromethyl)-1,3,4-thiadiazol-2-yl)-9H-pyrimido[4,5-b]indole-7-sulfonamide], the IC50 in assay [1] and in assay [2] was less than 100 nM in each case.

Consider `C[C@H](O)C(=O)N1CCC(c2ncnc3c2c2ccc(S(=O)(=O)NC4(C#N)CC4)cc2n3-c2nnc(C(F)F)s2)CC1` [Example 106, (S)-N-(1-Cyanocyclopropyl)-9-(5-(difluoromethyl)-1,3,4-thiadiazol-2-yl)-4-(1-(2-hydroxypropanoyl)piperidin-4-yl)-9H-pyrimido[4,5-b]indole-7-sulfonamide], for which the IC50 in assay [1] and in assay [2] was less than 100 nM throughout.

Regarding `C[C@@H](O)C(=O)N1CCC(c2ncnc3c2c2ccc(S(=O)(=O)NC4(C#N)CC4)cc2n3-c2nnc(C(F)F)s2)CC1` [Example 107, (R)-N-(1-Cyanocyclopropyl)-9-(5-(difluoromethyl)-1,3,4-thiadiazol-2-yl)-4-(1-(2-hydroxypropanoyl)piperidin-4-yl)-9H-pyrimido[4,5-b]indole-7-sulfonamide], the IC50 in assay [1] and in assay [2] was less than 100 nM throughout.

Regarding `CO[C@@H](C)C(=O)N1CCC(c2ncnc3c2c2ccc(S(=O)(=O)NC4(C#N)CC4)cc2n3-c2nnc(C(F)F)s2)CC1` [Example 108, (S)-N-(1-Cyanocyclopropyl)-9-(5-(difluoromethyl)-1,3,4-thiadiazol-2-yl)-4-(1-(2-methoxypropanoyl)piperidin-4-yl)-9H-pyrimido[4,5-b]indole-7-sulfonamide], the IC50 in assay [1] and in assay [2] was less than 100 nM throughout.

(Values after patent US20250388589A1, “TRICYCLIC HETEROCYCLIC DERIVATIVES, COMPOSITIONS AND USES THEREOF” (Danatlas Pharmaceuticals Co., Ltd., priority 2022, published 2025).)
